In ChEMBL document CHEMBL5209578, “Flow cytometry transport assay for SLC2A2 using HEK293 JumpIN TRex SLC2A2 WT-OE cells” (2022):

Molecular target: T1, Solute carrier family 2, facilitated glucose transporter member 2 (Homo sapiens, UniProt P11168)
T1 sequence (P11168 whole entry): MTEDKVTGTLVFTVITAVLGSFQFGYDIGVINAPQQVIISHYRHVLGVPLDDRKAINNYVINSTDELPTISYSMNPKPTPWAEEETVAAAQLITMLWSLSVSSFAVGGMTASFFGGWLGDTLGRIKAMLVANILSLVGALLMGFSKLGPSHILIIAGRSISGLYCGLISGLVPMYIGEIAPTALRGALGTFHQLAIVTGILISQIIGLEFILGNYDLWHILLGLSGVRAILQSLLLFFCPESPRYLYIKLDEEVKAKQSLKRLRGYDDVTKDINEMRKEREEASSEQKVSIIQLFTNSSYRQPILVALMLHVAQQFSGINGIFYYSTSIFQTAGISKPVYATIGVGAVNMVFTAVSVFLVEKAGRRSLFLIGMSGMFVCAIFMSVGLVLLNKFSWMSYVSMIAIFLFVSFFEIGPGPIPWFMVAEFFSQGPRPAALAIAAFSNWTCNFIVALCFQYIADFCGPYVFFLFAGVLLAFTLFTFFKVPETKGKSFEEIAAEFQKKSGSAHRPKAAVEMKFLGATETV
Test: Inhibition of the Glucose Transporter (GLUT2, SLC2A2) as assessed by a FRET based flow cytometry assay using a genetically-encoded biosensor for measuring free glucose (FLII12Pglu-700uDelta6) in HEK293 JumpIN TRex SLC2A2 WT-OE cells (PubChem AID: 1794829)
Type: functional, cell-based

EC50	SMILES	IC50
–	O=C(Oc1cccc(F)c1OC(=O)c1cccc(O)c1)c1cccc(O)c1	> 10 µM
527 µM	OC[C@H]1OC(O)[C@H](O)[C@@H](O)[C@@H]1O (stereo partly drawn) [DEXTROSE]	–
–	C=C1[C@@H](C)[C@H]2[C@H](Cc3ccccc3)NC(=O)[C@]23OC(=O)/C=C/[C@H](O)CCC[C@@H](C)C/C=C/[C@H]3[C@@H]1O [CYTOCHALASIN B]	> 10 µM
